Assay results from PubChem BioAssay (NCI).
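Each compound was tested at five concentrations against cells in 96-well plates for 48 hours. GI50 marks 50% less growth. TGI: concentration producing complete growth inhibition.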

What was measured:
Assay in all cases: NCI-60 cell line screen, 48 h
NCI-H460 lung = tested on: NCI-H460 lung
BT-549 breast = tested on: BT-549 breast
KM12 colon = tested on: KM12 colon
HL-60(TB) leukemia = tested on: HL-60(TB) leukemia
TK-10 renal = tested on: TK-10 renal
SNB-19 CNS = tested on: SNB-19 CNS
HT29 colon = tested on: HT29 colon
RPMI-8226 leukemia = tested on: RPMI-8226 leukemia
PC-3 prostate = tested on: PC-3 prostate
SF-295 CNS = tested on: SF-295 CNS
NCI-H226 lung = tested on: NCI-H226 lung
SK-OV-3 ovarian = tested on: SK-OV-3 ovarian
IGROV1 ovarian = tested on: IGROV1 ovarian
NCI-H522 lung = tested on: NCI-H522 lung
NCI/ADR-RES ovarian = tested on: NCI/ADR-RES ovarian
NCI-H23 lung = tested on: NCI-H23 lung
HS 578T breast = tested on: HS 578T breast
M14 melanoma = tested on: M14 melanoma
HCT-15 colon = tested on: HCT-15 colon
MOLT-4 leukemia = tested on: MOLT-4 leukemia
A549 NSCLC = tested on: A549 NSCLC
T-47D breast = tested on: T-47D breast
RXF 393 renal = tested on: RXF 393 renal
K-562 leukemia = tested on: K-562 leukemia
HOP-92 NSCLC = tested on: HOP-92 NSCLC
DU-145 prostate = tested on: DU-145 prostate
HOP-62 NSCLC = tested on: HOP-62 NSCLC
HCC-2998 colon = tested on: HCC-2998 colon
SW-620 colon = tested on: SW-620 colon
UACC-257 melanoma = tested on: UACC-257 melanoma
SNB-75 CNS = tested on: SNB-75 CNS
MALME-3M melanoma = tested on: MALME-3M melanoma
U251 CNS = tested on: U251 CNS
786-0 renal = tested on: 786-0 renal
SR leukemia = tested on: SR leukemia
MDA-MB-435 = tested on: MDA-MB-435
EKVX NSCLC = tested on: EKVX NSCLC
OVCAR-4 ovarian = tested on: OVCAR-4 ovarian
OVCAR-3 ovarian = tested on: OVCAR-3 ovarian
OVCAR-8 ovarian = tested on: OVCAR-8 ovarian
MCF7 breast = tested on: MCF7 breast
ACHN renal = tested on: ACHN renal
CCRF-CEM leukemia = tested on: CCRF-CEM leukemia
COLO 205 colon = tested on: COLO 205 colon
HCT-116 colon = tested on: HCT-116 colon
UO-31 renal = tested on: UO-31 renal
SK-MEL-5 melanoma = tested on: SK-MEL-5 melanoma
UACC-62 melanoma = tested on: UACC-62 melanoma
LOX IMVI melanoma = tested on: LOX IMVI melanoma
SF-268 CNS = tested on: SF-268 CNS
SF-539 CNS = tested on: SF-539 CNS
OVCAR-5 ovarian = tested on: OVCAR-5 ovarian
MDA-MB-231 breast = tested on: MDA-MB-231 breast
SK-MEL-28 melanoma = tested on: SK-MEL-28 melanoma
SN12C renal = tested on: SN12C renal
SK-MEL-2 melanoma = tested on: SK-MEL-2 melanoma
A498 renal = tested on: A498 renal

N#CC1=C(N)Oc2c(ccc3ccccc23)C1c1cc(=O)oc2ccc(Cl)cc12 (centres undefined)
GI50 (NCI-H460 lung): 0.466 µM
TGI (NCI-H460 lung): 14 µM
GI50 (BT-549 breast): 1.3 µM
TGI (BT-549 breast): 61.8 µM
GI50 (KM12 colon): 0.453 µM
TGI (KM12 colon): 31.4 µM
GI50 (HL-60(TB) leukemia): 0.275 µM
TGI (HL-60(TB) leukemia): 1.51 µM
GI50 (TK-10 renal): 16.9 µM
TGI (TK-10 renal): 73.1 µM
GI50 (SNB-19 CNS): 0.651 µM
TGI (SNB-19 CNS): > 100 µM
GI50 (HT29 colon): 1.91 µM
TGI (HT29 colon): 6.89 µM
GI50 (RPMI-8226 leukemia): 1.68 µM
TGI (RPMI-8226 leukemia): 20 µM
GI50 (PC-3 prostate): 0.495 µM
TGI (PC-3 prostate): > 100 µM
GI50 (SF-295 CNS): 0.398 µM
TGI (SF-295 CNS): 20.1 µM
GI50 (NCI-H226 lung): 26 µM
TGI (NCI-H226 lung): 81.6 µM
GI50 (SK-OV-3 ovarian): 0.965 µM
TGI (SK-OV-3 ovarian): > 100 µM
GI50 (IGROV1 ovarian): 0.873 µM
TGI (IGROV1 ovarian): > 100 µM
GI50 (NCI-H522 lung): 0.348 µM
TGI (NCI-H522 lung): 2.97 µM
GI50 (NCI/ADR-RES ovarian): 0.522 µM
TGI (NCI/ADR-RES ovarian): 36.8 µM
GI50 (NCI-H23 lung): 4.96 µM
TGI (NCI-H23 lung): > 100 µM
GI50 (HS 578T breast): 0.656 µM
TGI (HS 578T breast): 47.2 µM
GI50 (M14 melanoma): 0.441 µM
TGI (M14 melanoma): > 100 µM
GI50 (HCT-15 colon): 0.471 µM
TGI (HCT-15 colon): 15.8 µM
GI50 (MOLT-4 leukemia): 0.887 µM
TGI (MOLT-4 leukemia): 87.8 µM
GI50 (A549 NSCLC): 1.38 µM
TGI (A549 NSCLC): > 100 µM
GI50 (T-47D breast): 0.646 µM
TGI (T-47D breast): 24.1 µM
GI50 (RXF 393 renal): 0.217 µM
TGI (RXF 393 renal): 1.93 µM
GI50 (K-562 leukemia): 0.375 µM
TGI (K-562 leukemia): > 100 µM
GI50 (HOP-92 NSCLC): 0.556 µM
TGI (HOP-92 NSCLC): 42 µM
GI50 (DU-145 prostate): 4.11 µM
TGI (DU-145 prostate): > 100 µM
GI50 (HOP-62 NSCLC): 0.672 µM
TGI (HOP-62 NSCLC): > 100 µM
GI50 (HCC-2998 colon): 2.72 µM
TGI (HCC-2998 colon): 19.5 µM
GI50 (SW-620 colon): 0.411 µM
TGI (SW-620 colon): > 100 µM
GI50 (UACC-257 melanoma): 14.4 µM
TGI (UACC-257 melanoma): 91.7 µM
GI50 (SNB-75 CNS): 2.16 µM
TGI (SNB-75 CNS): > 100 µM
GI50 (MALME-3M melanoma): 18.1 µM
TGI (MALME-3M melanoma): 67.8 µM
GI50 (U251 CNS): 0.535 µM
TGI (U251 CNS): 20.2 µM
GI50 (786-0 renal): 0.646 µM
TGI (786-0 renal): > 100 µM
GI50 (SR leukemia): 0.449 µM
TGI (SR leukemia): > 100 µM
GI50 (MDA-MB-435): 0.244 µM
TGI (MDA-MB-435): 0.947 µM
GI50 (EKVX NSCLC): 3.79 µM
TGI (EKVX NSCLC): > 100 µM
GI50 (OVCAR-4 ovarian): 4.31 µM
TGI (OVCAR-4 ovarian): > 100 µM
GI50 (OVCAR-3 ovarian): 0.386 µM
TGI (OVCAR-3 ovarian): 12.3 µM
GI50 (OVCAR-8 ovarian): 1.87 µM
TGI (OVCAR-8 ovarian): 24 µM
GI50 (MCF7 breast): 0.347 µM
TGI (MCF7 breast): 22.1 µM
GI50 (ACHN renal): 1.99 µM
TGI (ACHN renal): 73.4 µM
GI50 (CCRF-CEM leukemia): 0.407 µM
TGI (CCRF-CEM leukemia): 58.1 µM
GI50 (COLO 205 colon): 1.95 µM
TGI (COLO 205 colon): 8.27 µM
GI50 (HCT-116 colon): 0.406 µM
TGI (HCT-116 colon): 23.8 µM
GI50 (UO-31 renal): 1.82 µM
TGI (UO-31 renal): > 100 µM
GI50 (SK-MEL-5 melanoma): 0.484 µM
TGI (SK-MEL-5 melanoma): 14.4 µM
GI50 (UACC-62 melanoma): 0.47 µM
TGI (UACC-62 melanoma): 41.1 µM
GI50 (LOX IMVI melanoma): 0.854 µM
TGI (LOX IMVI melanoma): 40.5 µM
GI50 (SF-268 CNS): 2.02 µM
TGI (SF-268 CNS): > 100 µM
GI50 (SF-539 CNS): 0.486 µM
TGI (SF-539 CNS): 5.57 µM
GI50 (OVCAR-5 ovarian): 4.1 µM
TGI (OVCAR-5 ovarian): > 100 µM
GI50 (MDA-MB-231 breast): 4.36 µM
TGI (MDA-MB-231 breast): > 100 µM
GI50 (SK-MEL-28 melanoma): 10.6 µM
TGI (SK-MEL-28 melanoma): 74.9 µM
GI50 (SN12C renal): 2.59 µM
TGI (SN12C renal): 45.4 µM
GI50 (SK-MEL-2 melanoma): 0.972 µM
TGI (SK-MEL-2 melanoma): 44.7 µM
GI50 (A498 renal): 0.805 µM
TGI (A498 renal): 42.2 µM
